pEC50, pIC50: −log10 of the molar value. Where two headings read alike, the source gives them in different places.
Assays:
[1] = test system: HL60 cells; assay: Differentiation of cultured HL60 cells; type: cell-based, human
Protocol: Cultured HL60 cells are treated for 6 days with the compounds dissolved in a minimum of methanol at 9 different concentrations. The doses chosen encompass the IC50 determined beforehand using the MTT test (Carmichael et al., Cancer Res., 1986, 47, 936).
The cells are washed (450 μl), resuspended in the same volume of complete medium and incubated for 1 hour at 37° C. in the presence of 7 ug/ml of DNA-specific fluorochrome.
The measurements, which are carried out by means of a laser cytometer, make it possible to estimate the percentage of cells accumulated, and therefore differentiated, in the G0 and G1 phase of the cell cycle.

[2] = target: T1, microsomal NMT of CEM cells (Homo sapiens, UniProt P30419); assay: Inhibition of the myristoylation of a gag-derived peptide of HIV-1 (subtype BRU), microsomal fraction of CEM cells; type: biochemical; conditions: 20-AA p18 peptide of HIV-1 (subtype BRU), 30 minutes at 37° C., read-out: IC50 during incubation with the microsomal fraction
T1 construct: The pellet (microsomes) and the supernatant (cytosol) are recovered independently and then frozen; endogenous in cells; host or cells: CEM immortalized T lymphocytes, microsomal pellet (105,000 g), treated with Triton 770
T1 sequence (P30419 1-496): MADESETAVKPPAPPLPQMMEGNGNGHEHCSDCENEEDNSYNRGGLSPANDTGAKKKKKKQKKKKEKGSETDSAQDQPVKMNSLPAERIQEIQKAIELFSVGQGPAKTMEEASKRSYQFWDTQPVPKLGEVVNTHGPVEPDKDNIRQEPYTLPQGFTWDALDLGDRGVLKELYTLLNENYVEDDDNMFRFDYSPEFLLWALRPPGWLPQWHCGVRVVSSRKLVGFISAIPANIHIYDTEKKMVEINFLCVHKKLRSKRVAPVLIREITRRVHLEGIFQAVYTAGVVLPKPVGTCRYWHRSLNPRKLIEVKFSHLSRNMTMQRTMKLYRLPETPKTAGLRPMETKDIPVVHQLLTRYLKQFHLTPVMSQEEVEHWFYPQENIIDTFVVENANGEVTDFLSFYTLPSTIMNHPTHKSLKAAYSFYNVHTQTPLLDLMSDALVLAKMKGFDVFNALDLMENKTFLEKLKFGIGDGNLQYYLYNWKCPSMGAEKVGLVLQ
Protocol: Immortalized T lymphocytes (CEM) are mass- cultured as described in Example 57, and then harvested by centrifugation and washed in PBS.
These cells are sonicated (3 brief periods of 10 seconds) and then homogenized in a glass/glass Potter.
This homogenate, in which all the cells have been opened (checked under a microscope), is subjected to centrifugation for 1 h 10) at 105,000 g. The pellet (microsomes) and the supernatant (cytosol) are recovered independently and then frozen.
The NMT activity is then measured following the procedure of Towler and Glaser but stopping the reaction with […] of acetonitrile in order to avoid precipitation of the myristoylated peptide. This 20-AA peptide: NH2^[…] COOH, is derived from p18 of the HIV-1 virus (subtype BRU).
These experimentations are carried out using a cytosolic (40 μl) or microsomal (20 μl treated with 4 μl of 10% Triton 770) source of CEM cells in the presence of increasing concentrations of the compounds of the invention (1 to 1,000 μM, final). The samples, incubated for 30 minutes at 37° C. and stopped with 200 μl of acetonitrile, are then analyzed by HPLC and the myristoylation of p18 quantified.

[3] = target: T2, cytosolic NMT (N-myristoyltransferase) of L1210 cells (Mus musculus, UniProt O70310); assay: Inhibition of the cytosolic NMT activity of cancerous L1210 cells; type: biochemical, murine
T2 construct: The supernatant is then used as a source of NMT; endogenous in cells; host or cells: L1210 murine leukemia cells, cytosol (105,000 g supernatant)
T2 sequence (O70310 1-496): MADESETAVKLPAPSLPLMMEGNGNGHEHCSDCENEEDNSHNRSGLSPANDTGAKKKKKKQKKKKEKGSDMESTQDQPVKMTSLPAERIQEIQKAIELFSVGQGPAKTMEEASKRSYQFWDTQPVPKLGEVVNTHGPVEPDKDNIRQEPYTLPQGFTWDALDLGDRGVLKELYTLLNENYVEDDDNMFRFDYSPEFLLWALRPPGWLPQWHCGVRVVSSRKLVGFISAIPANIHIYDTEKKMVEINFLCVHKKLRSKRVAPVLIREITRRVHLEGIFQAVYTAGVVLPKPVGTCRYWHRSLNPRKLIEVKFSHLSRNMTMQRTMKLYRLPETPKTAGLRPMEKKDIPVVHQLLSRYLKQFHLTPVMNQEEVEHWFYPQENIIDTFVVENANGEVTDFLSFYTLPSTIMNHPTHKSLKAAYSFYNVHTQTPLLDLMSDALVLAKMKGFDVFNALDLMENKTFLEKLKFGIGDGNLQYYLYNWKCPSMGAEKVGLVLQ
Protocol: Mass-cultured L1210 cells (murine leukemia) are used as a source of […].
They are cultured in RPMI 1640 supplemented with 50 U/ml of penicillin, […] of streptomycin, 2 mM of glutamine, 10 mM HEPES and 10% of fetal calf serum, maintained in a 5% CO2 /95% air atmosphere and at 37° C.
They are harvested and then washed in PBS by centrifuging at low speed. The final cell pellet is resuspended in a 50 mM HEPES buffer, pH 7.4, containing 2 mM EGTA, 1 mM DTT and 1 mM PMSF. The cells are opened by sonication at 4° C. and homogenized by a to and fro movement in a glass/glass Potter. The cell homogenate is then centrifuged at low speed (10,000 rpm, 10 minutes) in order to precipitate the cell debris and the supernatant is subjected to ultracentrifugation at 105,000 g for 1 hour.
The supernatant is then used as a source of NMT. The measurement of activity is carried out according to the method described by Towler and Glazer (PNAS, 1986, 83, 2812) using as substrate peptide either the peptide derived from the NH2 terminal of the pp60src oncogene product: GSSKSKPKDP (DP), or the peptide derived from the NH2 terminal of the gag product, a structural protein of the Maloney murine leucemic virus: GQTVTTPL (T3) at a final concentration of 0.3 mM.

[4] = Toxicity on CEM cells in the HIV protection test; type: cell-based; conditions: human, method of WEISLOW et al., unit printed m, read-out: toxicity (IC50)
Text: The method used is described by WEISLOW et al. (J. Natl. Cancer Inst., 1989, 81, 577).

[5] = test system: HIV-1 virus; assay: Protective effect on CEM cells against infection by the HIV virus; type: cell-based
Text: The method used is described by […] et al. (J. Natl. Cancer Inst., 1989, 81, 577).

[6] = HL60 cells, 6 days, cells accumulated in G0 and G1 phase, laser cytometer

| pIC50 [2] | pIC50 ([3]; cytosolic NMT of L1210 cells, substrate peptide DP (pp60src) or T3 (gag), 0.3 mM, read-out: IC50) | pEC50 ([5]; Human immunodeficiency virus 1, CCRF-CEM, HIV infection, method of WEISLOW et al.) | SMILES | doses to which the marked differentiating effect can extend [1, 6] | CC50 [4] | therapeutic index ([5]; toxicity IC50 / protective EC50) | doses to which the marked differentiating effect can extend ([1]; 144 h) | pIC50 [3] |
| --- | --- | --- | --- | --- | --- | --- | --- | --- |
| 4.00 | 6.74 |  | CCCCCCCCCCCCCC(=O)N1Cc2ccccc2C[C@H]1C(=O)O [Example 1, N-Myristoyl-3-(S)-carboxy-(1,2,3,4)-tetrahydroisoquinoline] | below 50 ug/ml |  |  |  |  |
|  |  | 5.00 | COCCCCCCCCCCCC(=O)N[C@@H](Cc1ccccc1)C(=O)O [Example 49, N-(12-METHOXYLAUROYL)-(S)-PHENYLALANINE] | below 50 ug/ml | 200 µM | 20 |  |  |
|  |  |  | CCCCCCCCCCCCCC(=O)NC(Cc1ccccc1)P(=O)(O)OCC (stereo not drawn) [Example 16, ETHYL 1-MYRISTOYLAMINO-2-[…]] |  |  |  | below 50 ug/ml | 5.70 |

Reference: patent US5266576A, “N-myristoyl transferase inhibitors” (Adir et Compagnie, priority 1991, dated 1993)
